Assay results taken from patent publication US8637481B2, “Sensitizing agents for cancer therapy, methods of use and methods for the identification thereof” (University Health Network, priority 2009, dated 2014).

Experiments:
[1] = tested on: FaDu cells; experiment: Cell viability assay (MTS); assay type: cell-based, human; conditions: IR 4 Gy, 96 h post-IR, siRNA 48 h transfection, ALA 250-1000 μM 4 h
From the text: The CeliTiter 96 AQueous One Solution Cell Proliferation Assay (3-(4,5-dimethylthiazol-2-yl)-5-(3-carboxymethoxyphenyl)-2-(4-sulfophenyl)-2H-tetrazolium, inner salt MTS (Promega, Madison, Wis.) was used to detect cell viability according to the manufacturer's specifications.

[2] = tested on: FaDu cells; experiment: Apoptotic fraction by flow cytometry post-IR; assay type: cell-based, human; conditions: deferoxamine 5 μM pre-treatment 24 h before IR 4 Gy, 72 h post-IR
Experimental: Flow cytometric analyses were performed on a FACSCalibur Flow Cytometer (BD Biosciences, San Jose, Calif.), equipped with FlowJo software (Tree Star, Ashland, Oreg.). Cell cycle distributions, caspase activation, and mitochondrial membrane potentials were measured as previously described. Intracellular ROS levels were quantified using the non-specific 5-(and 6-)chloromethyl-2′,7′-dichlorodihydrofluorescein diacetate (CM-H2DCFDA) dye, and the superoxide-selective dihydroethidium (DE) dye as instructed by the manufacturer (Invitrogen).
Transfected cells were immediately exposed to a continuous flow of humidified 0.2% O2 with 5% CO2 and balanced N2 (Praxair, Ontario, Canada) in an In Vivo2 400 Hypoxia Chamber (Ruskinn Technology, Pencoed, UK). An OxyLite 4000 oxygen-sensing probe (Oxford Optronix, Oxford, UK) was used to verify target O2 levels.

Row | Compound | cytotoxicity plus IR (cell viability, MTS) [1] | siUROD-plus-IR-induced apoptosis [2]
1 | Cl.NCC(=O)CCC(=O)O [ALA, δ-aminolevulinic acid hydrochloride] | negligible effects | 
2 | deferoxamine mesylate salt |  | significant suppression
